Values of other authors as cited in US20220096467A1, “COMBINATION OF SELECTIVE ALPHA-ADRENERGIC RECEPTOR AGONIST OR AN ANTICHOLINERGIC AGENT AND LIPOIC ACID AND USES THEREOF” (Cellix Bio Private Limited, priority 2019, published 2022).

System: eyes of patients who had open angle glaucoma
Settings: 150 mg of ALA per day, controls received only topical medical therapy

In the case of O=C(O)CCCCC1CCSS1 (stereo not drawn) [ALA, alpha lipoic acid], the “Eyes in the study with enhanced color visual fields and visual sensitivity versus the controls” value is given as 45-47%.
